From ChEMBL document CHEMBL4419120, “Bitter taste receptors” (2015) come the findings set out here.

Format in all cases: functional, cell-based
Experiment [1] addresses T1, Taste receptor type 2 member 45 (Homo sapiens) (UniProt P59539).
T1 sequence (whole entry): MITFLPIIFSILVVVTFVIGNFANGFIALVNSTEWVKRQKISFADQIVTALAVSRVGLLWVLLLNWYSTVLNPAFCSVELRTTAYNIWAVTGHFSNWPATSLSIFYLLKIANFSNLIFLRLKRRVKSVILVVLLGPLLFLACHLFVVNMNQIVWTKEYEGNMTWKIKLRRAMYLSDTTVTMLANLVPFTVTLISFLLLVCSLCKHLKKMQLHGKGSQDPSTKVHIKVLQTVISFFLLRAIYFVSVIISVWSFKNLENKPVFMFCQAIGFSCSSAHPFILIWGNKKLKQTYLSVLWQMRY
In words: Activity at human TAS2R45 expressed in HEK-293T-Galpha16-gustducin44 cells assessed as threshold concentration of compound at which point receptor detects compounds by measuring calcium response by FLIPR assay.

The target in experiment [2] is T2, Taste receptor type 2 member 19 (Homo sapiens) (UniProt P59542).
T2 sequence (whole entry): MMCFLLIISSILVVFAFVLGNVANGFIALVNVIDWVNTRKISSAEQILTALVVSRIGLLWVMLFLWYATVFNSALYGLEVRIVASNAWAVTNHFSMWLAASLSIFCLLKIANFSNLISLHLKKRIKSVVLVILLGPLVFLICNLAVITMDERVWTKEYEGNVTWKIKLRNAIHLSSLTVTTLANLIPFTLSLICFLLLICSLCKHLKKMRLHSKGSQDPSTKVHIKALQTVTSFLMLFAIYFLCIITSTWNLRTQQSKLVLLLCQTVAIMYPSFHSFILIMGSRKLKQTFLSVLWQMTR
In words: Activity at human TAS2R48 expressed in HEK-293T-Galpha16-gustducin44 cells assessed as threshold concentration of compound at which point receptor detects compounds by measuring calcium response by FLIPR assay.

The target in experiment [3] is T3, Taste receptor type 2 member 10 (Homo sapiens) (UniProt Q9NYW0).
T3 sequence (whole entry): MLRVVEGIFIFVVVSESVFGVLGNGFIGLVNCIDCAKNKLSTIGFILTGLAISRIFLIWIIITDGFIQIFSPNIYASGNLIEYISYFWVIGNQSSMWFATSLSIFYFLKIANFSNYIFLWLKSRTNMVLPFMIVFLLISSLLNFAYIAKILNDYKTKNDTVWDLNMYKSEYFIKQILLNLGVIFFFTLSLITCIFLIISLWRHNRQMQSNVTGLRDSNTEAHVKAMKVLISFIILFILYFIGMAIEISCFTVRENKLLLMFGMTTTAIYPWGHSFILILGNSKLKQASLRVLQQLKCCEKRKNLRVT
In words: Activity at human TAS2R10 expressed in HEK-293T-Galpha16-gustducin44 cells assessed as threshold concentration of compound at which point receptor detects compounds by measuring calcium response by FLIPR assay.

The target of experiment [4] is T4, Taste receptor type 2 member 46 (Homo sapiens) (UniProt P59540).
T4 sequence (whole entry): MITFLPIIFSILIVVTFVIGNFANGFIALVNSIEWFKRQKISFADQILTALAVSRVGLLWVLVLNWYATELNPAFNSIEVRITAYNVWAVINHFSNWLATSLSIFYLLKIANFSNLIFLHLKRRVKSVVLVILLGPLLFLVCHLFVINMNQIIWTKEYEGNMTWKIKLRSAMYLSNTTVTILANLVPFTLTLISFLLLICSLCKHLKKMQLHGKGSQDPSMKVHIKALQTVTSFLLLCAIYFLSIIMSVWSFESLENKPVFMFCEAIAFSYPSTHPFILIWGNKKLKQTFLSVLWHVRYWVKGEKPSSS
Description: Activity at human TAS2R46 expressed in HEK-293T-Galpha16-gustducin44 cells assessed as threshold concentration of compound at which point receptor detects compounds by measuring calcium response by FLIPR assay.

As for `CC1=C[C@@H]2[C@@H]3C4C(=C(C)[C@@H]3[C@@]13[C@@H]2[C@@](C)(O)CC[C@H]1[C@H](C)C(=O)O[C@@H]13)[C@H]1OC(=O)[C@@H](C)[C@@H]1CC[C@]4(C)O` (some centres undefined), the Activity came out at 0.003 mM in experiment [1], 0.03 mM in experiment [2], 0.01 mM in experiment [3] and 0.001 mM in experiment [4].
